Measurements from patent US6921777B2, “Heteroethynylenic compounds and pharmaceutical and cosmetic compositions containing them” (Galderma Research & Development, S.N.C., priority 1998, dated 2005).

Target: T1, RXRalpha (Homo sapiens, UniProt P19793)
T1 construct: expressed in transfected cells; host or cells: Cos7 monkey kidney cells
T1 sequence (P19793 1-462): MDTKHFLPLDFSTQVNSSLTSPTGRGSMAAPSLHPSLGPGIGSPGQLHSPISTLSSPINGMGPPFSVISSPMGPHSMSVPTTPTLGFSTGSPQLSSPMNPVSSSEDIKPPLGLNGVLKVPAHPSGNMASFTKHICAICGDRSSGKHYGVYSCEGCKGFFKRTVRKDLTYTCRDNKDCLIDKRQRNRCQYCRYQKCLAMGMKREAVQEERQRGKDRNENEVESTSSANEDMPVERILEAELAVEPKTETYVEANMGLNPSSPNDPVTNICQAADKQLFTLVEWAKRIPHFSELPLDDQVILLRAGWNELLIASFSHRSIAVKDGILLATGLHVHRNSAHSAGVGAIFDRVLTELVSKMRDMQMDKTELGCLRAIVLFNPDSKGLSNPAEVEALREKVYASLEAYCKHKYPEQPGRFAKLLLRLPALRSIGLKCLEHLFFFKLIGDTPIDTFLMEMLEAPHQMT
Experiment: RXR antagonist transactivation test (cotransfection pSG5-RXRalpha / CRBPII-tk-Luc, luciferase)
Format: cell-based
Conditions: Cos7 cells; for inhibition at 1 µM: COS-7, test compound at 10^−6M final, 3 nM reference agonist, treatment 18 h, luciferase activity, read-out: % of inhibition of the induction obtained with the agonist alone; for IC50: in the presence of 3 nM agonist 6-[1-(3,5,5,8,8-pentamethyl-5,6,7,8-tetrahydro-2-naphthalenyl)cyclopropyl]nicotinic acid, 5 concentrations 10^−5 to 10^−9 M, read-out: IC50 (dose required to achieve 50% inhibition of the agonist activity)
Description: a) Determination of the IC50 values of the antagonist compounds
The dose-response curve obtained makes it possible to determine the IC50 value which is specific to the compound.
b) Test of RXR Antagonist Transactivation
The properties of inhibition of the activation of the RXR response elements (RXRE) can be determined by recognized methods of the art.
The receptor expression plasmid pSG5-RXRalpha and the reporter plasmid CRBPII-tk-Luc are introduced into the Cos7 monkey kidney cell line by the method of coprecipitation with calcium phosphate described in Molecular Cloning: A laboratory manual (Sambrook et al. eds. Cold Spring Harbor Lab. Publ. 1989). […] The test compound is added at 10^−6M final. After treatment for 18 h, the cells are rinsed with PBS and lysed in 0.1M KPO4 (pH 7.8), 1.0% Triton X100, 1.0 mM DTT, 1 mM EDTA. The luciferase activity of the cell lysatesis measured as described by deWet et al. in Mol. Cell. Biol. 7:725 (1987).

Row | SMILES | inhibition at 1 µM [%] | IC50 [nM]
1 | COCOc1cc([Se]C#CC(C)=CC(=O)O)cc2c1C(C)(C)CCC2(C)C [EXAMPLE 14, 5-(4-Methoxymethoxy-5,5,8,8-tetramethyl-5,6,7,8-tetrahydronaphthalen-2-ylselenyl)-3-methylpent-2-en-4-ynoic Acid] | 61 | 471
2 | CCCOc1cc2c(cc1[Se]C#CC(C)=CC(=O)O)C(C)(C)CCC2(C)C [EXAMPLE 10, 3-Methyl-5-(5,5,8,8-tetramethyl-3-propoxy-5,6,7,8-tetrahydronaphthalen-2-ylselenyl)pent-2-en-4-ynoic Acid] | 57 | 671
3 | CCCOc1cc([Se]C#CC(C)=CC(=O)O)cc2c1C(C)(C)CCC2(C)C [EXAMPLE 12, 3-Methyl-5-(5,5,8,8-tetramethyl-4-propoxy-5,6,7,8-tetrahydronaphthalen-2-ylselenyl)pent-2-en-4-ynoic Acid] | 92 | 71
